Measurements as given in ChEMBL document CHEMBL3885861, “Open TG-GATES”.

Organism: Rattus norvegicus
Test: Open TG-GATES - Regimen: Single
Format: toxicity, organism-based, Sprague-Dawley
Set-up: regimen Single, gender Male, age 6 weeks
Conditions: in vivo, po, 300 mg/kg, route gavage, dose level Middle; for APTT / Bas / Eos / Fbg / Hb / Ht / Lym / MCH / MCHC / MCV / Mono / Neu / PT / Plat / RBC / Ret / WBC: tissue Blood; for KIDNEY_L / KIDNEY_R / KIDNEY_TOTAL: tissue Kidney; for LIVER: tissue Liver; for A/G / ALP / ALT / AST / BUN / CRE / Ca / Cl / DBIL / GLC / IP / K / LDH / Na / PL / RALB / TBIL / TC / TG / TP / gamma-GTP: tissue Plasma

With `CCOC(=O)CCC(=O)O[C@H]1[C@H](O[C@@H]2[C@@H](C)[C@H](O[C@H]3C[C@@](C)(OC)[C@@H](O)[C@H](C)O3)[C@@H](C)C(=O)O[C@H](CC)[C@@](C)(O)[C@H](O)[C@@H](C)C(=O)[C@H](C)C[C@@]2(C)O)O[C@H](C)C[C@@H]1N(C)C` [ERYTHROMYCIN ETHYLSUCCINATE] the TERMINAL_BW (3 h) was 220.4 g, the APTT (3 h) was 21.7 s and the Bas (3 h) was 0%. It also gave an Eos (3 h) of 1%, a Fbg (3 h) of 294.4 mg/dL and a Hb (3 h) of 12.8 g/dL. For the same compound, the Ht (3 h) was 38.6%, the Lym (3 h) was 75.4% and the MCH (3 h) was 21.2 pg. The MCHC (3 h) was 33.2%, the MCV (3 h) was 63.8 fL and the Mono (3 h) was 2.6%. For the same compound, the Neu (3 h) was 19.8%, the PT (3 h) was 15.7 s and the Plat (3 h) was 123.6 x10_4/uL. It also gave an RBC (3 h) of 606.2 x10_4/ul, a Ret (3 h) of 7.9% and a WBC (3 h) of 80.1 x10_2/uL. It also gave a KIDNEY_L (3 h) of 1 g, a KIDNEY_R (3 h) of 1 g and a KIDNEY_TOTAL (3 h) of 2.1 g. It also gave an LIVER (3 h) of 10 g, an A/G (3 h) of 1.2 and an ALP (3 h) of 1689.6 IU/L. It also gave an ALT (3 h) of 42.4 IU/L, an AST (3 h) of 74.2 IU/L and a BUN (3 h) of 11.6 mg/dL. For the same compound, the CRE (3 h) was 0.2 mg/dL, the Ca (3 h) was 10.5 mg/dL and the Cl (3 h) was 103.8 meq/L. It also gave a DBIL (3 h) of 0.004 mg/dL, a GLC (3 h) of 179 mg/dL and an IP (3 h) of 9.1 mg/dL. For the same compound, the K (3 h) was 4.1 meq/L, the LDH (3 h) was 141 IU/L and the Na (3 h) was 138.6 meq/L. It also gave a PL (3 h) of 149 mg/dL, an RALB (3 h) of 2.9 g/dL and a TBIL (3 h) of 0.026 mg/dL. For the same compound, the TC (3 h) was 76.4 mg/dL, the TG (3 h) was 66.4 mg/dL and the TP (3 h) was 5.3 g/dL. For the same compound, the gamma-GTP (3 h) was 1 IU/L, the TERMINAL_BW (6 h) was 216.3 g and the APTT (6 h) was 22.3 s. It also gave a Bas (6 h) of 0%, an Eos (6 h) of 0.8% and a Fbg (6 h) of 318.4 mg/dL. The Hb (6 h) was 13.1 g/dL, the Ht (6 h) was 39.8% and the Lym (6 h) was 77.8%. The MCH (6 h) was 20.8 pg, the MCHC (6 h) was 32.8% and the MCV (6 h) was 63.5 fL. The Mono (6 h) was 3.8%, the Neu (6 h) was 16.4% and the PT (6 h) was 15.7 s. For the same compound, the Plat (6 h) was 115 x10_4/uL, the RBC (6 h) was 627.8 x10_4/ul and the Ret (6 h) was 8.7%. The WBC (6 h) was 87.9 x10_2/uL, the KIDNEY_L (6 h) was 1 g and the KIDNEY_R (6 h) was 1 g. For the same compound, the KIDNEY_TOTAL (6 h) was 2 g, the LIVER (6 h) was 9.2 g and the A/G (6 h) was 1.2. For the same compound, the ALP (6 h) was 1767.2 IU/L, the ALT (6 h) was 43.4 IU/L and the AST (6 h) was 72.8 IU/L. For the same compound, the BUN (6 h) was 10.8 mg/dL, the CRE (6 h) was 0.2 mg/dL and the Ca (6 h) was 10.6 mg/dL. The Cl (6 h) was 104 meq/L, the DBIL (6 h) was 0 mg/dL and the GLC (6 h) was 180 mg/dL. It also gave an IP (6 h) of 10.1 mg/dL, a K (6 h) of 4.2 meq/L and an LDH (6 h) of 160.2 IU/L. For the same compound, the Na (6 h) was 138.2 meq/L, the PL (6 h) was 140 mg/dL and the RALB (6 h) was 2.9 g/dL. The TBIL (6 h) was 0.032 mg/dL, the TC (6 h) was 75.6 mg/dL and the TG (6 h) was 50.6 mg/dL. The TP (6 h) was 5.4 g/dL, the gamma-GTP (6 h) was 1.2 IU/L and the TERMINAL_BW (9 h) was 210.5 g. It also gave an APTT (9 h) of 22.3 s, a Bas (9 h) of 0% and an Eos (9 h) of 1.2%. For the same compound, the Fbg (9 h) was 318.4 mg/dL, the Hb (9 h) was 13.4 g/dL and the Ht (9 h) was 40.5%. For the same compound, the Lym (9 h) was 79%, the MCH (9 h) was 20.8 pg and the MCHC (9 h) was 33%. It also gave an MCV (9 h) of 62.9 fL, a Mono (9 h) of 2.6% and a Neu (9 h) of 15.8%. It also gave a PT (9 h) of 15.6 s, a Plat (9 h) of 125.3 x10_4/uL and an RBC (9 h) of 645.4 x10_4/ul. For the same compound, the Ret (9 h) was 8%, the WBC (9 h) was 77.8 x10_2/uL and the KIDNEY_L (9 h) was 1 g. It also gave a KIDNEY_R (9 h) of 1 g, a KIDNEY_TOTAL (9 h) of 2 g and an LIVER (9 h) of 8.8 g. For the same compound, the A/G (9 h) was 1.2, the ALP (9 h) was 1386.8 IU/L and the ALT (9 h) was 33.8 IU/L. For the same compound, the AST (9 h) was 62.6 IU/L, the BUN (9 h) was 10 mg/dL and the CRE (9 h) was 0.2 mg/dL. It also gave a Ca (9 h) of 10.5 mg/dL, a Cl (9 h) of 105.2 meq/L and a DBIL (9 h) of 0 mg/dL. It also gave a GLC (9 h) of 174.4 mg/dL, an IP (9 h) of 9.4 mg/dL and a K (9 h) of 4.2 meq/L. The LDH (9 h) was 170.6 IU/L, the Na (9 h) was 138.8 meq/L and the PL (9 h) was 136 mg/dL. It also gave an RALB (9 h) of 3 g/dL, a TBIL (9 h) of 0.03 mg/dL and a TC (9 h) of 75.2 mg/dL. For the same compound, the TG (9 h) was 49.8 mg/dL, the TP (9 h) was 5.5 g/dL and the gamma-GTP (9 h) was 1.2 IU/L. It also gave a TERMINAL_BW (24 h) of 226.7 g, an APTT (24 h) of 20.4 s and a Bas (24 h) of 0%. The Eos (24 h) was 1%, the Fbg (24 h) was 319.8 mg/dL and the Hb (24 h) was 13.7 g/dL. For the same compound, the Ht (24 h) was 41.1%, the Lym (24 h) was 85% and the MCH (24 h) was 21.1 pg. The MCHC (24 h) was 33.4%, the MCV (24 h) was 63.3 fL and the Mono (24 h) was 2.4%. It also gave a Neu (24 h) of 10.8%, a PT (24 h) of 16 s and a Plat (24 h) of 117.1 x10_4/uL. It also gave an RBC (24 h) of 649.4 x10_4/ul, a Ret (24 h) of 7% and a WBC (24 h) of 88.2 x10_2/uL. The KIDNEY_L (24 h) was 1 g, the KIDNEY_R (24 h) was 1 g and the KIDNEY_TOTAL (24 h) was 2 g. It also gave an LIVER (24 h) of 9.8 g, an A/G (24 h) of 1.2 and an ALP (24 h) of 1484 IU/L. It also gave an ALT (24 h) of 37.4 IU/L, an AST (24 h) of 69.6 IU/L and a BUN (24 h) of 15.4 mg/dL. It also gave a CRE (24 h) of 0.1 mg/dL, a Ca (24 h) of 10.4 mg/dL and a Cl (24 h) of 106.8 meq/L. For the same compound, the DBIL (24 h) was 0.002 mg/dL, the GLC (24 h) was 195.4 mg/dL and the IP (24 h) was 8.1 mg/dL. For the same compound, the K (24 h) was 4.3 meq/L, the LDH (24 h) was 174.8 IU/L and the Na (24 h) was 142 meq/L. The PL (24 h) was 135.2 mg/dL, the RALB (24 h) was 2.9 g/dL and the TBIL (24 h) was 0.016 mg/dL. The TC (24 h) was 75.2 mg/dL, the TG (24 h) was 87.6 mg/dL and the TP (24 h) was 5.4 g/dL. It also gave a gamma-GTP (24 h) of 1.2 IU/L.
